{"source": "patent US8603493B2", "about": "“Carbosilane dendrimers, preparation method thereof and use of same” (Dendrico, S.L., priority 2005, dated 2013)", "key": {"[1]": {"assay": "Dendrimer-drug binding test (polyacrylamide gel delay), heparin", "details": "dendrimer 100 μM, heparin 10, 1, 0.5, 0.1 U, 37° C., 1 hour", "protocol": "(§1) The drugs chosen to perform the tests, all with at least one negative charge at physiological pH, were: • Methotrexate (sodium salt): • 1 charge (−) • Supplying laboratory: Almirall • Presentation: 25 mg/ml solution • Excipients: NaCl, NaOH, HCl, double-distilled H2O • Heparin (sodium salt) • Several charges (−) • Supplying laboratory: Rovi • Presentation: 10 mg/ml solution (1000 U) • Excipients: methyl p-oxybenzoate, propyl p-oxybenzoate, NaCl, double-distilled H2O • Insulin (recombinant human insulin) • 4 charges (−) • Supplying laboratory: Novo Nordisk • Product trade name: Actrapid • Presentation: 3.5 mg/ml solution (100 U) • Excipients: ZnCl2, HCl, NaOH, double-distilled H2O\n(§2) The determination of the bond and complex formation between the dendrimer and the drug was performed by evaluating the delay in the polyacrylamide gel of the dendrimer bound to drug with respect to the free dendrimer: • Complex formation: It is performed in a final volume of the mixture of 30 μl, which is the maximum volume to load in the gel. To do this, one starts from the necessary quantity of dendrimer that provides a perfectly identifiable band by staining with silver nitrate in the gel once the electrophoresis has been carried out: 20 μl of a 100 μM solution, which corresponds to […] molecules. The drug is added in the 10 μl at different concentrations to produce the chosen (+) and (−) charge ratios, also determining the quantity of drug molecules present in the mixture. An incubation of said mixture was performed at 37° C. during 1 hour to give time for a more thermodynamically stable complex to form, although more time may be needed for its formation. Each complex is performed in duplicate. • Electrophoresis and gel staining: The gels used were 7.5% polyacrylamide/bisacrylamide, prepared with 1.5M Tris pH 8.8. Each electrophoresis was carried out at 90 volts during 4 hours, after which the gel was stained with silver nitrate and photographed. […]"}, "[2]": {"test_system": "SK-N-MC cells", "assay": "Transfection of SK-N-MC cells mediated by dendrimers (flow cytometry)", "type": "cell-based", "details": "dendriplex with anti-rev oligonucleotide 250 nM, − charge/+ charge ratio 1:4, 24 hours", "protocol": "(§3) 100000 cells/well were plated of the corresponding cell line in a 24-well plate with 500 μl of medium.\n(§4) Dendriplexes were formed with dendrimers NN and NN16 and the fluorescent anti-rev antisense oligonucleotide in a total volume of 75 μl of medium without serum, wherein the anti-rev oligonucleotide was mixed at a concentration 250 nM and the corresponding dendrimer in different proportions, so that different − charge/+ charge ratios were obtained: 1:1, 1:2, 1:4 and 1:8. The mixture was incubated during half an hour at ambient temperature and then it was added to the corresponding well to incubate the cells with dendriplexes.\n(§5) After 24 hours of incubation, the cells were removed from the well, they were washed twice with PBS, they were incubated for 1 minute with acid glycine to remove the possible moieties of dendriplexes which may have remained adhered on the cell membrane, and a final wash was performed with PBS. Finally, the cells were resuspended in 500 μl of PBS and the quantity of fluorescent oligonucleotide inside the cell was quantified by flow cytometry."}, "[3]": {"test_system": "SK-N-MC cells", "assay": "Proliferation of SK-N-MC cells incubated with dendrimers (MTS)", "type": "cell-based", "details": "3 days", "protocol": "(§6) The tests were performed with the dendrimers NN (2G-[Si(O(CH2)2N(Me)(CH2)2NMe3^+I^−)]8 (26)) and NN16 (2G-[Si(O(CH2)2N^+(Me)2(CH2)2NMe3^+2I^−)]8 (36)). The transfection tests were performed with the anti-rev RF ODN (SEQ ID NO:2). The culture medium was DMEM+10% bovine foetal serum.\n(§7) Different experiments were performed, one with SK-N-MC cells and another with U-87-MG cells, which studied the effect of the dendrimers on the proliferation of said lines. For this, 7000 cells/well were plated of the corresponding in a 96-well dish. […] As positive proliferation control, cells were incubated with 20 μg/ml of LPS and, as positive death induction control, cells were used incubated with 7% DMSO. As negative control untreated cells were used."}, "[4]": {"test_system": "U87-MG cells", "assay": "Toxicity in U-87-MG cells: LDH in the supernatant", "details": "24 hours", "source_text": "The concentrations and volumes of each one of these compounds were the same used in the test performed with MTT. The commercial kit Cytotoxicity Detection KitPLUS (LDH), from Roche Applied Science was used to determine lactate dehydrogenase, following the manufacturer's instructions."}, "[5]": {"molecular_target": "T1, Insulin (recombinant human insulin) (Homo sapiens, UniProt P01308)", "T1 construct": "Despite having its molecular weight (5825 g/mol) and establishing an average of 4 (−) charges; purchased Novo Nordisk Actrapid (trade name; no catalogue number given)", "T1 sequence (P01308 25-54 limits assumed)": "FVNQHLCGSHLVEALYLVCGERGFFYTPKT", "T1 sequence (P01308 90-110 limits assumed)": "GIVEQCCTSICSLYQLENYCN", "assay": "Dendrimer-drug binding test (polyacrylamide gel delay), insulin", "details": "dendrimer 100 μM, insulin 1, 0.5, 0.1, 0.05 U, 37° C., 1 hour", "protocol": "as §1, §2"}, "[6]": {"test_system": "U87-MG cells", "assay": "Transfection of U87-MG cells mediated by dendrimers (flow cytometry)", "type": "cell-based", "details": "dendriplex with anti-rev oligonucleotide 250 nM, − charge/+ charge ratio 1:8, 24 hours", "protocol": "as §3, §4, §5"}, "[7]": {"test_system": "U87-MG cells", "assay": "Proliferation of U-87-MG cells incubated with dendrimers (MTS)", "type": "cell-based", "details": "1 μM, 5 μM and 10 μM, 3 days", "protocol": "as §6, §7"}, "[8]": {"assay": "Dendrimer-drug binding test (polyacrylamide gel delay), methotrexate", "details": "dendrimer 100 μM, charge ratios 1+/1− to 8+/1−, 37° C., 1 hour", "protocol": "as §1, §2"}, "[9]": {"test_system": "SK-N-MC cells", "assay": "Toxicity in SK-N-MC cells: test with MTT", "type": "cell-based", "details": "24 hours, 1, 5, 10 μM"}, "[10]": {"test_system": "U87-MG cells", "assay": "Toxicity in U-87-MG cells: tests with MTT", "protocol": "A test with U-87-MG cells was performed, wherein the effect of the dendrimers on the viability of said lines was studied at different times. To do this, 15000 (24 hour incubations), 7000 (3 day incubations) or 1500 (7 day incubations) cells per well were plated in 96-well plates. The cells were incubated with different concentrations (1 μM, 5 μM and 10 μM) either NN dendrimer or NN16 dendrimer, during 24 hours, 3 days and 7 days. […] Two different positive controls were also used: cells treated with 7% DMSO and cells treated with 1% Triton X-100.\nIn the case of Superfect, three doses were tested, the optimum dose recommended by the manufacturer (2.5 μl), a lower dose (1.25 μl) and another higher dose (5 μl). With regard to Polyfect, specifically designed for adherent cells, the three doses tested were: optimum dose (0.6 μl), lower dose (0.3 μl) and higher dose (1.2 μl).\nAfter each corresponding incubation time, a test was performed with MTT analogous to that described in Example 38. At the absorbance value obtained in the untreated cells (C−) it was given the value of 1 and the moiety of the absorbencies produced was used to refer to it."}}, "note": "“Also recorded” adds a separate entry of the source."}
{"smiles": "C[N+](C)(C)CC[N+](C)(C)CCO[Si](C)(C)CCC[Si](C)(CCC[Si](CCC[Si](C)(CCC[Si](C)(C)OCC[N+](C)(C)CC[N+](C)(C)C)CCC[Si](C)(C)OCC[N+](C)(C)CC[N+](C)(C)C)(CCC[Si](C)(CCC[Si](C)(C)OCC[N+](C)(C)CC[N+](C)(C)C)CCC[Si](C)(C)OCC[N+](C)(C)CC[N+](C)(C)C)CCC[Si](C)(CCC[Si](C)(C)OCC[N+](C)(C)CC[N+](C)(C)C)CCC[Si](C)(C)OCC[N+](C)(C)CC[N+](C)(C)C)CCC[Si](C)(C)OCC[N+](C)(C)CC[N+](C)(C)C", "note": "[NN16, 2G-[Si(O(CH2)2N^+(Me)2(CH2)2NMe3^+2I^−)]8]", "values": [{"measurement": "dendrimer-heparin complex formation (delay in gel)", "setting": "[1]", "result": "complex is formed"}, {"measurement": "percentage of cells transfected (maximum transfection)", "setting": "[2]", "result": 82.3, "unit": "%"}, {"measurement": "effect on cell proliferation (MTS)", "setting": "[3]; 1 μM and 5 μM", "result": "do not produce toxicity nor cell proliferation"}, {"measurement": "effect on cell proliferation (MTS)", "setting": "[3]; 10 μM", "result": "toxic"}, {"measurement": "cytotoxicity (LDH), comparison", "setting": "[4]", "result": "greater cytotoxicity as their concentration increases; also recorded: less toxic than NN"}, {"measurement": "dendrimer-insulin complex formation (delay in gel)", "setting": "[5]", "result": "complex is formed"}, {"measurement": "percentage of cells transfected", "setting": "[6]", "result": 97.8, "unit": "%"}, {"measurement": "effect on cell proliferation (MTS)", "setting": "[7]", "result": "neither induce proliferation nor cell death"}, {"measurement": "dendrimer-methotrexate complex formation (delay in gel)", "setting": "[8]", "result": "complex is formed"}, {"measurement": "toxicity (MTT), comparison", "setting": "[9]", "result": "least toxicity"}, {"measurement": "viability (MTT), untreated cells (C−) = 1", "setting": "[10]; 3 days, any one of the three concentrations (1, 5, 10 μM)", "result": "~0.8"}, {"measurement": "viability (MTT), untreated cells (C−) = 1", "setting": "[10]; 7 days, 10 μM", "result": 0.7}]}
